Laboratory results: PubChem BioAssay AID624167 (Sanford-Burnham Center for Chemical Genomics, 2012)
Active and inactive are the calls of the source.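 The calls were made as follows: active = mean IC50 for reducing PEG3 promoter reporter signal at or below a set limit, with IC50 above the limit in both counter screens; inactive = the rest, including counter screen hits.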

How the values were obtained:
Rat fibroblasts (CREF) = test: Peg3 promoter luciferase inhibitors, potency, dose response, cell-based, HeLa, CREF/GAPDH counter-screen panel (AID 624167); conditions: CREF/GAPDH counter-screens
[1] = as above; conditions: CREF/GAPDH counter-screens; GAPDH; mean of runs
GAPDH = test: as above; conditions: CREF/GAPDH counter-screens
PEG-3 [2] = biological target: PEG-3 (UniProt Q6IN02); test: as above; conditions: HeLa PEG-Prom luciferase reporter, overnight, CREF/GAPDH counter-screens, mean of runs
Sequence of PEG-3 (UniProt Q6IN02) (Q6IN02 whole entry, looked up): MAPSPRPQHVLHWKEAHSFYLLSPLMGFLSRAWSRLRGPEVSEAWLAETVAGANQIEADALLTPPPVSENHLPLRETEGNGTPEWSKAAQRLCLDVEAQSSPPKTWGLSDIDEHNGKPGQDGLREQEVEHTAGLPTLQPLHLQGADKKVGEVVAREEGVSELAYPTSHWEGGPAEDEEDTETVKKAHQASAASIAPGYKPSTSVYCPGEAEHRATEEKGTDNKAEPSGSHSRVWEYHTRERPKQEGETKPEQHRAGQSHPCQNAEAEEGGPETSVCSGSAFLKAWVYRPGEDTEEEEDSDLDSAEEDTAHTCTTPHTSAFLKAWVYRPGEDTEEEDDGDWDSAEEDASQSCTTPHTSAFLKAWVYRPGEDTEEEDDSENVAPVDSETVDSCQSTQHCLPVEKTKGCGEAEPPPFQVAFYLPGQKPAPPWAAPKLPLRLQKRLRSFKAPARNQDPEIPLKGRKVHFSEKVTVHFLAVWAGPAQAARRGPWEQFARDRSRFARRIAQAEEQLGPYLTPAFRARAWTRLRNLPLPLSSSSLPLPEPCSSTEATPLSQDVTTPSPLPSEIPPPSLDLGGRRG

PEG-3 [3] = test: as above; conditions: HeLa PEG-Prom luciferase reporter, overnight, CREF/GAPDH counter-screens
[4] = run 1, dose range 1, individual replicate IC50 per panel
[5] = run 2, dose range 1, individual replicate IC50 per panel

IC50 [1] | IC50 (PEG-3 [2]) | Structure (SMILES) | IC50 (Rat fibroblasts (CREF); mean of runs) | IC50 (Rat fibroblasts (CREF); [4]) | IC50 (Rat fibroblasts (CREF); [5]) | IC50 (GAPDH; [4]) | IC50 (GAPDH; [5]) | IC50 (PEG-3 [3]; [4]) | IC50 (PEG-3 [3]; [5])
20.9 µM | 1.49 µM | Cc1cc(C)c2sc(NNC(=O)c3ccc(S(=O)(=O)N4CCc5ccccc5C4)cc3)nc2c1 | > 100 µM (inactive) | > 100 µM | > 100 µM | 10.4 µM | 31.5 µM | 0.939 µM | 2.04 µM
15.4 µM | 7.4 µM | CCCCCCCNC(=O)C1(CC2CC(c3cccc(Br)c3)=NO2)CCNCC1 (stereo not given) | 16.5 µM | 16.1 µM | 16.9 µM | 13.5 µM | 17.3 µM | 8.05 µM | 6.76 µM
> 100 µM (inactive) | inactive | O=C(CNC(=O)C(c1ccccc1)c1ccccc1)N/N=C/c1ccc(O)cc1O | > 100 µM (inactive) | > 100 µM | > 100 µM | > 100 µM | > 100 µM | 3.59 µM | > 100 µM
3.75 µM | 6.99 µM | C(=N\Nc1ccc2ccccc2n1)/c1ccc2c(c1)OCCO2 | 51.2 µM (inactive) | 2.43 µM | > 100 µM | 6.78 µM | 0.719 µM | 5.86 µM | 8.13 µM
> 100 µM (inactive) | 6.22 µM | O=C(N/N=C\c1c(O)ccc2ccccc12)c1ccc(Cn2cccn2)o1 | > 100 µM (inactive) | > 100 µM | > 100 µM | > 100 µM | > 100 µM | 3.09 µM | 9.35 µM
> 100 µM (inactive) | inactive | O=C(CNc1ccccc1)N/N=C/c1c(O)ccc2ccccc12 | 51.1 µM (inactive) | 57.4 µM | 44.9 µM | > 100 µM | > 100 µM | 3.48 µM | > 100 µM
inactive | 2.87 µM | CS(=O)(=O)Nc1cccc(NC(=O)C2Cc3c(-c4cccc(F)c4)ccnc3O2)c1 (stereo not given) | > 100 µM (inactive) | > 100 µM | > 100 µM | > 100 µM | 44.6 µM | 3.11 µM | 2.62 µM
> 100 µM (inactive) | inactive | Cc1nc(C)c(C(=O)N/N=C/c2cc(Br)ccc2O)s1 | 64.9 µM (inactive) | 52.3 µM | 77.5 µM | > 100 µM | > 100 µM | 5.65 µM | > 100 µM
inactive | 1.74 µM | CCCC(=O)NC(c1ccc(OC)cc1)c1ccc2cccnc2c1O (stereo not given) | 50.7 µM (inactive) | > 100 µM | 1.48 µM | 57.7 µM | 70.4 µM | 2.76 µM | 0.719 µM
> 100 µM (inactive) | inactive | CN(O)C(=S)c1ccccc1 | > 100 µM (inactive) | > 100 µM | > 100 µM | > 100 µM | > 100 µM | 10.3 µM | 42.5 µM
5.04 µM | 0.95 µM | Cc1ccc(/C=C2\SC(=S)N(CCCC(=O)NNC(=O)c3ccccc3O)C2=O)cc1 | > 100 µM (inactive) | > 100 µM | > 100 µM | 2.65 µM | 7.43 µM | 1.71 µM | < 0.2 µM
5.82 µM | 4.55 µM | O=C(COc1ccc2c(c1)CCC2)Nc1ccccn1 | 33.2 µM | 29.2 µM | 37.2 µM | 2.94 µM | 8.7 µM | 3.52 µM | 5.59 µM
inactive | 5.13 µM | O=C(CCn1cnc(-c2ccccc2)c1-c1ccccc1)N/N=C/c1ccccc1O | 63.2 µM (inactive) | > 100 µM | 26.4 µM | 49.7 µM | > 100 µM | 5.32 µM | 4.93 µM
inactive | 1.75 µM | CC(=O)NC(c1ccc(Cl)cc1)c1ccc2cccnc2c1O (stereo not given) | > 100 µM (inactive) | > 100 µM | > 100 µM | 58.8 µM | 56 µM | 1.47 µM | 2.04 µM
inactive | 10.2 µM | CCCCCCN1C=C/C(=C\C=C(C#N)C#N)c2ccccc21 | 55.3 µM (inactive) | > 100 µM | 10.7 µM | 1.24 µM | > 100 µM | 13.4 µM | 7.03 µM
25.1 µM | 8.68 µM | O=C(CCl)N1c2ccccc2Sc2ccc3ccccc3c21 | 26.3 µM | 24.5 µM | 28.1 µM | 26.7 µM | 23.4 µM | 12.2 µM | 5.18 µM
0.974 µM | 0.27 µM | COc1ccc(Nc2ncnc3ccc(Br)cc23)c(OC)c1 | > 100 µM (inactive) | > 100 µM | > 100 µM | 0.864 µM | 1.08 µM | 0.293 µM | 0.246 µM
> 100 µM (inactive) | 2.07 µM | O=c1cnnc(N/N=C/c2ccccn2)[nH]1 | 67.1 µM (inactive) | > 100 µM | 34.1 µM | > 100 µM | > 100 µM | 1.69 µM | 2.45 µM
inactive | 10.5 µM | O=C(Nc1ccc(Cc2ccncc2)cc1)c1ccc([N+](=O)[O-])o1 | 14.2 µM | 14 µM | 14.3 µM | 56.6 µM | 63.3 µM | 13.2 µM | 7.69 µM
11.3 µM | 9.01 µM | Cc1cc(C(=O)Nc2cccc(C(=O)O)c2)oc1C | > 100 µM (inactive) | > 100 µM | > 100 µM | 6.56 µM | 16 µM | 6.77 µM | 11.2 µM
inactive | 3.86 µM | Cc1ccc(NC(=S)NC(=O)c2ccc(F)cc2)cc1S(=O)(=O)Nc1ccccc1Cl | 50.7 µM (inactive) | > 100 µM | 1.35 µM | 44.2 µM | 41 µM | 4.15 µM | 3.56 µM
inactive | 10.4 µM | Cc1ccccc1CNC(=O)C1CCCN(c2nnc(C)c3c(C)n(-c4ccccc4)nc23)C1 (stereo not given) | 19.8 µM | 23.9 µM | 15.6 µM | 41.3 µM | 25.2 µM | 14.6 µM | 6.15 µM
inactive | 9 µM | O=[N+]([O-])c1ccc(S(=O)(=O)c2ccccc2)nc1 | 54.4 µM (inactive) | 8.84 µM | > 100 µM | 33.8 µM | 29.1 µM | 9.44 µM | 8.56 µM
21.4 µM | 10.3 µM | COc1ccc(-n2cc(-c3ccccc3)c3c(N4CCOCC4)ncnc32)cc1 | 68.5 µM (inactive) | 66.9 µM | 70.1 µM | 21.3 µM | 21.4 µM | 12.1 µM | 8.51 µM

Structure (SMILES) | IC50 [1] | IC50 (PEG-3 [2]) | IC50 (Rat fibroblasts (CREF); mean of runs) | IC50 (Rat fibroblasts (CREF); [4]) | IC50 (Rat fibroblasts (CREF); [5]) | IC50 (GAPDH; [4]) | IC50 (GAPDH; [5]) | IC50 (PEG-3 [3]; [4]) | IC50 (PEG-3 [3]; [5])
C=Cc1cc(OC)c2c(c1)c(=O)oc1c2cc(OC)c2c(O)ccc(C3OC(C)C(O)C(C)(O)C3O)c21 (stereo not given) | inactive | 2.56 µM | > 100 µM (inactive) | > 100 µM | > 100 µM | > 100 µM | 64.1 µM | 2.17 µM | 2.96 µM
